These results are taken from US11065238B2, “Inhibitors of gangliosides metabolism for the treatment of motor neuron diseases” (ICM (INSTITUT DU CERVEAU ET DE LA MOELLE ÉPINIÈRE), priority 2016, dated 2021).

Data set [1] deals with GM2 and GM3 gangliosides in primary cultures of cortical neurons. As to the kind of experiment: Fluorescence intensity of GM2 / GM3 immunostaining in primary cultures of cortical neurons. Conditions: for increase in overall GM2 levels: glutamate treatment. It counts as cell-based, mouse. The protocol:
Mouse primary cultures of cortical neurons were treated with Miglustat (Tocris) from the second day in culture. Medium was changed every three days. Immunostaining were performed after six days of culture in vitro, as previously described (Murmu et al., 2011). To downregulate GM3 synthase expression, vectors expressing miRNA were produced using the Block-it kit (Life Technologies). The miRNA sequences were: […] TGTACAT (miRNA GM3S-1) (SEQ ID NO: 3), […] (miRNA GM3S-2) (SEQ ID NO: 4), […] CTGTAGA (miRNA Neu1-1) (SEQ ID NO: 5) and […] ATCGTAG (miRNA Neu1-2) (SEQ ID NO: 6). Neurons were transfected with vectors expressing the miRNA and GFP using the Neon transfection system (Life Technologies). The efficiency of the miRNA sequences was validated by transfecting NIH-3T3 cells and performing quantitative RT-PCR using a LightCycler 480 apparatus (Roche) following the manufacturer's instructions. […] Quantification of gangliosides levels was performed either with an automated ArrayScan XTI apparatus (Thermo-Fisher) using the General Intensity Measurement protocol, or with ImageJ on image acquired on a Nikon Eclipse Ti-U microscope. […] Colocalization of ganglioside staining with lysosomes was quantified using ImageJ. A mask was made from the Lamp1 staining channel and the corresponding ganglioside fluorescence was quantified as the percentage of total ganglioside fluorescence in every cell. […] To quantify neuronal death, 30 hours after glutamate treatment all neurons were labeled with 100 nM Cell tracker Deep Red (Life Technologies) and dead cells were labeled by propidium iodide (5 μM). […] The number of Tuj-1-positive cells per well was quantified with an automated ArrayScan XTI apparatus (Thermo-Fisher) using the compartmental analysis protocol. Neuronal death was quantified by comparing glutamate-treated and non-treated neurons.

The subject of data set [2] is cultured neurons. Particulars: glutamate treatment; cited from earlier work.
The test system of data set [3] is p62. As to the kind of experiment: Western blot analysis of p62 levels in cortical neurons. Type of data set: cell-based, mouse.
The subject of data set [4] is mouse model of Tay Sachs disease. Particulars: cited from earlier work.
For data set [5], the system named is primary cultures of Spg11+/+ and Spg11−/− cortical neurons. As to the kind of experiment: Neuronal death triggered by glutamate in primary cultures of cortical neurons. Type of data set: cell-based, mouse. Conditions: glutamate 200 μM, 30 hours. The protocol:
(§1) Mouse primary cultures of cortical neurons were treated with Miglustat (Tocris) from the second day in culture. Medium was changed every three days. Immunostaining were performed after six days of culture in vitro, as previously described (Murmu et al., 2011). To downregulate GM3 synthase expression, vectors expressing miRNA were produced using the Block-it kit (Life Technologies). The miRNA sequences were: […] TGTACAT (miRNA GM3S-1) (SEQ ID NO: 3), […] (miRNA GM3S-2) (SEQ ID NO: 4), […] CTGTAGA (miRNA Neu1-1) (SEQ ID NO: 5) and […] ATCGTAG (miRNA Neu1-2) (SEQ ID NO: 6). Neurons were transfected with vectors expressing the miRNA and GFP using the Neon transfection system (Life Technologies). The efficiency of the miRNA sequences was validated by transfecting NIH-3T3 cells and performing quantitative RT-PCR using a LightCycler 480 apparatus (Roche) following the manufacturer's instructions. […] Quantification of gangliosides levels was performed either with an automated ArrayScan XTI apparatus (Thermo-Fisher) using the General Intensity Measurement protocol, or with ImageJ on image acquired on a Nikon Eclipse Ti-U microscope. […] Colocalization of ganglioside staining with lysosomes was quantified using ImageJ. A mask was made from the Lamp1 staining channel and the corresponding ganglioside fluorescence was quantified as the percentage of total ganglioside fluorescence in every cell. […]

For data set [6], the system named is GM2 in the telencephalon of zebrafish morphants. As to the kind of experiment: Zebrafish zspg11 model: GM2 immunostaining in the telencephalon. Type of data set: in vivo. Conditions: for GM2 immunostaining in the telencephalon: injection of 1.2 pmol morpholino vs mismatch morpholino. The procedure: (§2) Modeling of Spg11 pathology in zebrafish was performed as described previously (Martin, 2012). The knock-down of zspg11 was performed using a morpholino targeting a splice donor site, zspg11spl (5′-[…]-3′—SEQ ID NO: 88). The control morpholino mmzspg11spl (5′-ACgAATgATAGCcTCTCGTAgCgTC-3′—SEQ ID NO: 89) containing five mismatch nucleotides was used to distinguish specific phenotypic effects resulting from the knock-down of zspg11 from non-specific effects due to injection or morpholino toxicity. One nl of 1.2 mM solution of zspg11spl or mmzspg11spl were injected into the yolk of one- to two-cell stage embryos. After injection, embryos were maintained at 28° C. in E3 medium, containing miglustat (Tocris Bioscience) at 100 or 300 uM or DMSO for control groups. At 24 hpf they were manually dechorionated using fine forceps. […] To quantify motor activity, we monitored the touch-evoked escape response at 48 hours post-fertilization in fishes with no obvious developmental abnormalities as previously described (Martin, 2012). Images were acquired at 500 images per sec. Tracking of the touch evoked escape response was performed using the Image J manual tracking plugin. Assessment of GM2 ganglioside levels was performed by whole-mount in vivo immunohistochemistry using 48 hpf embryos fixed in 4% paraformaldehyde in PBS for 2 h at room temperature. Embryos were washed 3 times (5 min each) in PBS-0.1% Triton X-100 (PBST). Embryos were blocked for 1 h in 5% normal goat serum in PBS containing 1% DMSO and 1% Triton X-100 (PBDT), then incubated overnight at 4° C. in blocking solution containing the GM2 primary antibody. […] Larvae were oriented in the same position for image capture to minimize potential biases in quantification. […] Using ImageJ software, the maximum intensity projections of z-stacks were used for quantification of fluorescence in the telencephalon. Mean and variance of the fluorescence intensity were quantified for each morphant in a square of 100 pixels per 100 pixels.

Data set [7] concerns zebrafish zspg11 morphants. As to the kind of experiment: Zebrafish zspg11 model: phenotype of morphants 48 hours post fertilization. Type of data set: in vivo. Particulars: 48 hpf; for motor phenotype of morphants: injection of 1.2 pmol morpholino vs mismatch or non-injected. The protocol: as §2
Data set [8] relates to zebrafish zspg11 morphants. Nature of the data set: Zebrafish zspg11 model: touch-evoked escape response. Type of data set: in vivo. Conditions: for distance travelled following a touch-evoked escape response: treated with miglustat; for swimming / touch-induced escape: injection of 1.2 pmol morpholino vs mismatch morpholino. The procedure: Modeling of Spg11 pathology in zebrafish was performed as described previously (Martin, 2012). The knock-down of zspg11 was performed using a morpholino targeting a splice donor site, zspg11spl (5′-[…]-3′—SEQ ID NO: 88). The control morpholino mmzspg11spl (5′-ACgAATgATAGCcTCTCGTAgCgTC-3′—SEQ ID NO: 89) containing five mismatch nucleotides was used to distinguish specific phenotypic effects resulting from the knock-down of zspg11 from non-specific effects due to injection or morpholino toxicity. One nl of 1.2 mM solution of zspg11spl or mmzspg11spl were injected into the yolk of one- to two-cell stage embryos. After injection, embryos were maintained at 28° C. in E3 medium, containing miglustat (Tocris Bioscience) at 100 or 300 uM or DMSO for control groups. At 24 hpf they were manually dechorionated using fine forceps. […] To quantify motor activity, we monitored the touch-evoked escape response at 48 hours post-fertilization in fishes with no obvious developmental abnormalities as previously described (Martin, 2012). Images were acquired at 500 images per sec. Tracking of the touch evoked escape response was performed using the Image J manual tracking plugin. Assessment of GM2 ganglioside levels was performed by whole-mount in vivo immunohistochemistry using 48 hpf embryos fixed in 4% paraformaldehyde in PBS for 2 h at room temperature. Embryos were washed 3 times (5 min each) in PBS-0.1% Triton X-100 (PBST). Embryos were blocked for 1 h in 5% normal goat serum in PBS containing 1% DMSO and 1% Triton X-100 (PBDT), then incubated overnight at 4° C. in blocking solution containing the GM2 primary antibody. After 4 washes in PBST at room temperature, embryos were incubated with an anti IgM antibody coupled to Alexa-488 (Thermo Fishser), overnight at room temperature in PBDT. Before observation, embryos were washed 3 times in PSBT and mounted in a drop of Fluoromount™ Aqueous Mounting Medium (Sigma Aldrich). Whole-mount embryos were imaged on a confocal microscope (Leica SP8, 40X, NA 0.8). Larvae were oriented in the same position for image capture to minimize potential biases in quantification. Image stacks were collected with a step-size of 0.35 μm. Using ImageJ software, the maximum intensity projections of z-stacks were used for quantification of fluorescence in the telencephalon. Mean and variance of the fluorescence intensity were quantified for each morphant in a square of 100 pixels per 100 pixels.

Data set [9] relates to autolysosomes in Spg11+/+ and Spg11−/− neurons. As to the kind of experiment: Proportion of Lamp1-stained lysosomes also positive for p62 (autolysosomes) in cultured cortical neurons. Particulars: miglustat 100 μM, six days in vitro. It counts as cell-based, mouse. The procedure: as §1

Entries after “also recorded” stand apart in the source; their conditions may differ.

Take `N[C@@H](CCC(=O)O)C(=O)O` [Glutamate, glutamate]: the “increase in overall GM2 levels” value in data set [1] (Spg11−/− neurons, p=0.007, n>10) is on record as 15.7±3.9%; in data set [1] (control neurons, p=0.02, n>9), 20.0±4.6%. Besides, in data set [2], the ganglioside levels entry is on record as “increase ganglioside levels”. The p62 levels result in data set [3] (Spg11−/− neurons treated with glutamate (200 μM) for 24 hours) is reported as “significantly increased”; in [3] (control neurons treated with glutamate (200 μM) for 24 hours) it was “no difference”.

For the compound `CCCCN1C[C@H](O)[C@@H](O)[C@H](O)[C@H]1CO` [Miglustat, N-butyldeoxynojirimycin], in [4], the “brain levels of GM2” value is recorded as “decrease brain levels of GM2”. The “levels of GM2 (fluorescence intensity of GM2 immunostaining)” value in [1] (control and Spg11−/− cortical neurons, six days in vitro) is listed as “significantly decreased the levels of GM2 in a dose-dependent manner”. Moreover, in data set [5], the “neuronal death induced by glutamate” value is listed as “prevented neuronal death induced by glutamate; also recorded: decreased the neuronal death induced by glutamate in a dose-dependent manner”. For the same compound, in [6] (morphants injected with zspg11spl morpholino, treated with miglustat, 48 hpf), the “GM2 immunostaining intensity (mean and variance) in the telencephalon” value is “corrected when morphants were treated with miglustat; also recorded: corrected in larvae treated by miglustat”. Further, in [7] (larvae injected with zspg11spl morpholino, miglustat 100 or 300 uM in medium), the “proportion of paralyzed larvae” value is “decreased the proportion of paralyzed morphants; also recorded: significantly reduced in a dose-dependent manner”. Also, the “glutamate-induced increase of p62 levels” value in data set [3] (Spg11−/− neurons, miglustat 100 μM, glutamate 200 μM for 24 hours, p62 normalized to tubulin) is reported as “inhibited”. Further, the “distance travelled following a touch-evoked escape response” value is on record as “no effect” in data set [8] (morphants injected with mismatch morpholino) and “corrected when treated by miglustat; also recorded: significantly corrected” in data set [8] (morphants injected with zspg11spl morpholino, 48 hpf). Moreover, the “proportion of lysosomes positive for the p62 marker” value in [9] is recorded as “strongly decreased”.

For the compound “zspg11spl: morpholino targeting a splice donor site for knock-down of zspg11, 5′-ACCAATCATAGCGTCTCGTACCCTC-3′ (all phosphorodiamidate morpholino (PMO))”, the “GM2 immunostaining in the telencephalon” value in data set [6] is “increased the mean and variance of GM2 immunostaining intensity”; in [6] (listed as zspg11 morpholinos) it was “stronger GM2 staining”. Moreover, the figures for the “motor phenotype of morphants” value in data set [7] and in [7] (listed as zspg11 morpholinos) were “large proportion of paralyzed or slowly swimming phenotypes” and “either a loss of motility or a paralysis”, respectively. Moreover, the “swimming / touch-induced escape” value in data set [8] is “impaired the swimming”; in [8] (listed as zspg11 morpholinos), “significantly shorter touch-induced escapes”.
